The test system of one test is OCI-AML5 cells. The experiment in a line: Dose-response proliferative assay in OCI-AML5 (4 days, CellTiterGlo). The test is classed as cell-based, H. sapiens. The method, boiled down: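 Viability assessed after 4 days of compound exposure at 37 °C, 5% CO2. Compounds tested as 8 dilutions (1:4, 10 μM to 0.5 nM) on 300 OCI-AML5 cells/well grown in αMEM with 10% heat-inactivated FBS and 10 ng/mL GM-CSF.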

The next test has as its system cyclin KeGFP. Nature of the test: Cyclin KeGFP reporter system (eGFP/mCherry MFI by flow cytometry).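 Further: 10 μM compound for 3 h relative to DMSO.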 Type of test: cell-based, H. sapiens. To be noted: cyclin K-eGFP reporter. The method in brief:
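Degradation read as eGFP-to-mCherry MFI ratio relative to DMSO controls, from flow cytometry of the selected G7 clone of OCI-AML5 cells transduced with the cyclin KeGFP reporter.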

Another test has as its target T1, CDK9/CyclinT (Homo sapiens, UniProt P50750).
T1 construct: purchased BPS Bioscience 79628
The experiment in a line: CDK9/CyclinT in vitro kinase activity, single concentration 1 μM. Conditions: single concentration 1 μM. Type of test: biochemical. The method, then: (§1) Kinase activity was assessed using the kinase assay kits from BPS Bioscience for CDK1, CDK9 and CDK12 with Kinase Glo MAX in duplicates. Compounds were tested at a single concentration of 1 μM for CDK1 and CDK9 activity, and in a dilution ranging from 0.64 nM to 50 μM for CDK12 activity. Chemiluminescence was read using the Neo Synergy BioTek plate reader.

Another test has as its system primary AML specimens. Nature of the test: Dose-response assays in primary AML specimens (6 days, CellTiterGlo). The test is classed as cell-based, human. Conditions: Homo sapiens, 144 h, read-out: median IC50 in a panel of 40 primary AMLs, 6 days. The method, then:
Freshly thawed primary AML specimens were used for chemical screens. Cryopreserved cells were thawed at 37 °C in IMDM containing 20% FBS and DNase I (100 μg/mL). Cells were resuspended in IMDM supplemented with 15% BIT (BSA, insulin, transferrin; StemCell Technologies), 100 ng/mL SCF, 50 ng/mL FLT3L, 20 ng/mL IL3, 20 ng/mL G-CSF, 10^−4 mol/L b-mercaptoethanol, gentamicin (50 μg/mL), ciprofloxacin (10 μg/mL), SR1 (500 nmol/L) and UM729 (500 nmol/L). Cells were plated in 384-well white plates, 5000 cells per well in 50 μL. Compounds were dissolved in DMSO, diluted in media immediately before use and added to seeded cells at the unique concentration of 1 μM. Control wells received DMSO (0.1%) only. Cell viability was evaluated after 6 days in culture using the CellTiterGlo assay according to the manufacturer’s instruction. Percentage of inhibition for dose response curves was calculated as 100 – (100 × (mean luminescence [compound]/mean luminescence [DMSO])). Dose response curves were generated using nonlinear regression in GraphPad Prism version.
Dose-response assays in primary AML specimens were performed as in chemical screen (see above) with the exception that compounds were tested in serial dilution (8 dilutions, 1:4, 10 μM down to 0.5 nM). Dose-response assays in OCI-AML5 cell line were conducted similarly with the following modifications: 300 cells per well were seeded in 50 μL of cell line media and cell viability was evaluated after 4 days in culture.

The test system of test [1] is OCI-AML5 cells expressing shRNA targeting CUL4A or CUL4B. The experiment in a line: Dose response in OCI-AML5 expressing shRNAs targeting CUL4A, CUL4B or control. Conditions: ratio of IC50 in shCUL4A vs shCTRL OCI-AML5 cells. Type of test: cell-based, H. sapiens.
In the next test the target is T2, CDK1 (Homo sapiens, UniProt P06493).
T2 construct: purchased BPS Bioscience 79597
T2 sequence (P06493 whole entry): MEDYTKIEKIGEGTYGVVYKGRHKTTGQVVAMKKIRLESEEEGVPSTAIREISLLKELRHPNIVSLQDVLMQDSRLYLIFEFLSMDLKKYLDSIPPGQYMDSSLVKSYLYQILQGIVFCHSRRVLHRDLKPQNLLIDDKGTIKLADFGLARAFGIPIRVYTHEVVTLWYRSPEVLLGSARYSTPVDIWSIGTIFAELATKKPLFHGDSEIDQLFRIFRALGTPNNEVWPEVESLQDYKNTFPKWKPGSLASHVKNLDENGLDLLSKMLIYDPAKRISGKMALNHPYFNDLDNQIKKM
T2 sequence (P14635 whole entry partner): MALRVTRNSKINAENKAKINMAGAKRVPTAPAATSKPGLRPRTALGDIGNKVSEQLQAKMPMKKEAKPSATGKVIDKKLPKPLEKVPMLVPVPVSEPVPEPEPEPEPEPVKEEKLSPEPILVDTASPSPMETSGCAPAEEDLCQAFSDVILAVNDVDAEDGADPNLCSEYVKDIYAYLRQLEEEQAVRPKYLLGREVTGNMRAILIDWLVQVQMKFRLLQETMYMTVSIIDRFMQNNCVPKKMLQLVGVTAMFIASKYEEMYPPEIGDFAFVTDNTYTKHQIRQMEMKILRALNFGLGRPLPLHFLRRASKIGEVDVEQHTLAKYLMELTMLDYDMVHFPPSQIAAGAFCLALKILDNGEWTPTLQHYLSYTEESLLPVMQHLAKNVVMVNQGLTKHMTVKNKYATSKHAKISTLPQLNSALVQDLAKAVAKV
The experiment in a line: CDK1 in vitro kinase activity, single concentration 1 μM. Type of test: biochemical. To be noted: single concentration 1 μM. The method, then: as §1

Test [2] concerns OCI-AML5 and U937 cell lines. The experiment in a line: Synergistic interaction assay with THZ531 (Bliss score). The test is classed as cell-based. The source says: 3. It may be worthwhile to investigate whether the CDK12/13 inhibitor THZ531 could synergize with S656 or analogues like UOM-005636 that specifically degrade Cyclin K, in combination cytotoxicity assays, assessing selective suppression of AML viability over normal cells. Both […]
inhibiting CDK12, and S656 / UOM-005636 by degrading Cyclin K. Similar synergistic effects were observed by Katharina et al., where THZ531 promoted prostate ca ncer cell sensitivity to androgen deprivation therapy [Frei, K et. al. Inhibition of the Cyclin K-CDK12 complex induces DNA damage and increases the effect of androgen deprivation therapy in prostate cancer. Int J […]
Indeed, THZ531 is a covalent CDK12/13 inhibitor that specifically binds to the kinase pocket of […]
pocket of CDK12, and that pre-incubation with THZ531 competes with S656-mediated Cyclin K degradation (see Figure 5E).
We performed a synergistic interaction assay between THZ531 and S656 or UOM-005636 in OCI-AML5 and U937 cell lines (see below). […]
interactions between THZ531 and our cyclin K degrader molecules. This is likely due to both drugs competing for the same binding site, rather than acting through complementary pathways. […]

The test system of test [3] is OCI-AML5 cells expressing shRNAs targeting CDK1, 2, 4, 7, 9, cyclin K. The experiment in a line: Dose response in OCI-AML5 expressing shRNAs targeting CDK1, 2, 4, 7, 9, cyclin K or control. The test is classed as cell-based, H. sapiens. Conditions: for IC50: Homo sapiens.

Read-outs that look alike come from different tables or passages of the source.

T1 sequence (P50750 whole entry): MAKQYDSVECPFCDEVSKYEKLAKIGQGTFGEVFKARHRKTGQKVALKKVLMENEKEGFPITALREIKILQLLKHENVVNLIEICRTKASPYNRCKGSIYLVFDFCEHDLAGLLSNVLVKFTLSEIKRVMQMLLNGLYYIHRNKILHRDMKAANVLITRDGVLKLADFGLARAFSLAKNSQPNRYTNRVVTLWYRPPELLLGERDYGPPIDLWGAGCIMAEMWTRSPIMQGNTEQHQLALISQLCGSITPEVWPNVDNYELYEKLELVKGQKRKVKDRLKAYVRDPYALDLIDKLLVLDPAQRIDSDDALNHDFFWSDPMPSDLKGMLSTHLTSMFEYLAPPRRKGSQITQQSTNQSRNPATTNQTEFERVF
T1 sequence (O60563 whole entry partner): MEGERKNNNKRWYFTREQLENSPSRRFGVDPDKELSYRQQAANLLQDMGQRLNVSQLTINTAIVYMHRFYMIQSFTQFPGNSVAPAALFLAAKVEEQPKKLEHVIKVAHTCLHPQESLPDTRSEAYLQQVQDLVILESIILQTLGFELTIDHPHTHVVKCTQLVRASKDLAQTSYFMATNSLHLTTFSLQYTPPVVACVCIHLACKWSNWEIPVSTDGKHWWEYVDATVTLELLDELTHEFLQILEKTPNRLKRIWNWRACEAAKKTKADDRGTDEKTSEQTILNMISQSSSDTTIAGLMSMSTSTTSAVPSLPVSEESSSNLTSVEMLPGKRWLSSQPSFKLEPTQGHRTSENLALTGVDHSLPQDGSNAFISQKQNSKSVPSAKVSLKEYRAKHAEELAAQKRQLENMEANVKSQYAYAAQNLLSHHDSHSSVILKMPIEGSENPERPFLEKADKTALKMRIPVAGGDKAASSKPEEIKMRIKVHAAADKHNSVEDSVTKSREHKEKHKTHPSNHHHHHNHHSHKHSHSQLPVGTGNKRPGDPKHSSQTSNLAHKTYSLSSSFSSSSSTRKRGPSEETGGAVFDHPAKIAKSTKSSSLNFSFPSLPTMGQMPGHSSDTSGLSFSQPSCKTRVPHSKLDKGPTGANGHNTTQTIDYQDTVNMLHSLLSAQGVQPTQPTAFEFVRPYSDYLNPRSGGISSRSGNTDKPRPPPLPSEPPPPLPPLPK

For `O=C(Cc1ccc(-c2ccccn2)cc1)Nc1ncc(SCc2cccnc2)s1` [UOM-005636], the half-inhibitory concentration (IC50) stood at 85 nM with OCI-AML5 cells (Homo sapiens, OCI-AML-5, 96 h, 4 days incubation, read-out: IC50 OCI-AML5); 154 nM in the test on primary AML specimens; 21.7 nM in test [3] (OCI-AML-5, OCI-AML5 expressing shRNA CCNK (cyclin K), read-out: IC50 shRNA CCNK); 112 nM in test [3] (OCI-AML-5, OCI-AML5 expressing shRNA CDK1, read-out: IC50 shRNA CDK1); 142 nM in test [3] (OCI-AML-5, OCI-AML5 expressing shRNA CDK2, read-out: IC50 shRNA CDK2); 140 nM in test [3] (OCI-AML-5, OCI-AML5 expressing shRNA CDK4, read-out: IC50 shRNA CDK4). The half-inhibitory concentration (IC50) in test [3] (OCI-AML-5, OCI-AML5 expressing shRNA CDK7, read-out: IC50 shRNA CDK7) amounted to 140 nM; in test [3] (OCI-AML-5, OCI-AML5 expressing shRNA CDK9, read-out: IC50 shRNA CDK9) it was 101 nM. For the same compound, the “times more potent than S656” value in the test with OCI-AML5 cells (OCI-AML5 cell line and panel of 40 primary AMLs) worked out at 8. Besides, the “% degradation cyclin K-eGFP” value with cyclin KeGFP is listed as 80%. Moreover, the inhibition at 1 µM amounted to 57% at CDK9/CyclinT and 69% at CDK1. Besides, in test [1], the “Ratio shCUL4A/shCTRL” value came to 2.3. In addition, the “synergistic interaction with THZ531 (Bliss score)” value in test [2] is listed as “moderate to very low synergistic”. Further, the “class based on cellular selectivity” value in test [3] (IC50 in shRNA OCI-AML5 cells and cyclin KeGFP degradation) is “Class I (effective cyclin K MGDs (decreased IC50 in cyclin K depleted cells only, and >65% degradation of cyclin KeGFP))”. This compound also gave a Class in test [3] (class from shRNA IC50 profile and cyclin K-eGFP degradation) of 1.

What is called IC50 is the concentration that gives 50% inhibition. Broadly, the inhibition is the change of the read-out against control, counted positive when it falls.
